In patent publication US11419806B2, “Prebiotic oral care methods using a saccharide” (Colgate-Palmolive Company, priority 2013, dated 2022):

How the values were obtained:
Experiment in all cases: Phenotype microarray metabolic activity
Format in all cases: cell-based
[1] = system: Streptococcus gordonii; details: S gordonii
Experimental: (§1) The extent of metabolic activity of the tested bacteria in the presence of the above-mentioned saccharides after 24 hours and 48 hours was investigated through a high throughput phenotype microarray system (PM) for microbial cells (Biolog Inc.). Each PM can contain up to 95 different biochemical compounds (e.g. saccharides) that may act as substrates for bacteria as well as one negative control, not containing the substrates. Microarray plates were used in which the different wells of each plate were pre-loaded (by the manufacturer, Biolog Inc.) with different saccharides to be tested. Each bacterial species was tested using a separate microarray plate. Thus, a single bacterial species was tested with a variety of saccharides on each particular plate. The microarrays are based on redox technology, using cell respiration as a universal reporter. Active cell respiration results in the reduction of a tetrazolium dye and in the formation of a strong color—for example, when using the tetrazolium dye “Biolog Redox Dye Mix D”, the color changes from transparent/colorless to purple when the dye is reduced. The observation of this color change indicates which of the substrates improve the metabolic activity and health of the cells.
(§2) Each bacterial species was collected from blood agar plates (incubated for 48 hours anaerobically at 37° C.) and transferred to an IF-0 Base inoculation fluid (Biolog Inc.), which is a nutritionally poor medium. The resulting cell suspension was adjusted to a transmittance of 42% (relative to the transmittance of the base inoculation fluid with no bacterial species present) at 492 nm using a BioRad SmartSpec 3000 Photometer (the adjustment being effected by adding either further inoculation fluid or further bacteria until the transmittance of 42% was achieved). A 1:5 dilution of this suspension was prepared by mixing 3 mL of the 42% transmittance cell suspension with 15 mL of an inoculation fluid (which inoculation fluid was formed by mixing 11.6 mL sterile water, 62.5 mL IF-0 base inoculation fluid and 0.9 mL of the tetrazolium dye “Biolog Redox Dye mix D”), resulting in a final cell density which was equal to 85% transmittance using a BioRad SmartSpec 3000 Photometer. For each of the saccharides tested, the microarray plate (obtained from the supplier (Biolog Inc.) with saccharides already present in the relevant wells in powder form) was directly inoculated with 100 μL/well of this 85% transmittance cell suspension.
(§3) All plates were incubated in an anaerobic atmosphere at 37° C. Color changes were measured spectrophotometrically at 492 nm (Thermo Scientific Multiskan Ascent) at 24 hrs and 48 hrs using the same plate at both time points. […] After 24 hrs and 48 hrs under continuous shaking in a Multiscan microplate reader, the optical density (OD) of the synthetic medium at 24 hours and 48 hours was measured (using the microplate reader) at a wavelength of 492 nm for each combination of bacterium/saccharide, and for each of their respective controls (i.e. which contained the particular bacterium but no saccharide).
(§4) The experiment was carried out three times for each combination of bacterium with saccharide, with each repeat being carried out on a different day (thus providing three biological replicas). The controls were also carried out three times, as above. The values shown are the average (mean) of the three single values obtained (as detailed above) for each combination of bacterium with saccharide, at 24 hrs and at 48 hrs.

[2] = system: Prevotella intermedia; details: P intermedia
Experimental: as §1, §2, §3, §4

[3] = system: S sanguinis
Experimental: as §1, §2, §3, §4

[4] = system: Actinomyces naeslundii; details: A naeslundii
Experimental: as §1, §2, §3, §4

[5] = system: Actinomyces viscosus; details: A viscosus
Experimental: as §1, §2, §3, §4

[6] = system: Fusobacterium nucleatum; details: F nucleatum
Experimental: as §1, §2, §3, §4

[7] = system: Streptococcus mitis; details: S mitis
Experimental: as §1, §2, §3, §4

[8] = system: Tannerella forsythia; details: T forsythia
Experimental: as §1, §2, §3, §4

[9] = system: Streptococcus salivarius; details: S salivarius
Experimental: as §1, §2, §3, §4

[10] = system: Streptococcus mutans; details: S mutans
Experimental: as §1, §2, §3, §4

[11] = system: Capnocytophaga sputigena; details: C sputigena
Experimental: as §1, §2, §3, §4

[12] = system: Aggregatibacter actinomycetemcomitans; details: A actinomycetemcomitans
Experimental: as §1, §2, §3, §4

[13] = system: Streptococcus sobrinus; details: S sobrinus
Experimental: as §1, §2, §3, §4

[14] = system: Veillonella parvula; details: V parvula
Experimental: as §1, §2, §3, §4

[15] = system: Porphyromonas gingivalis; details: P gingivalis
Experimental: as §1, §2, §3, §4

CC(=O)N[C@H](C=O)[C@@H](O)[C@H](O)[C@H](O)CO [N-acetyl-D-mannosamine, 2-acetamido-2-deoxy-D-mannose]
metabolic activity: OD 492 nm divided by OD of control (control = 1) ([1]; 24 hrs): 1.6021
metabolic activity: OD 492 nm divided by OD of control (control = 1) ([1]; 48 hrs): 2.3739
metabolic activity: OD 492 nm divided by OD of control (control = 1) ([2]; 24 hrs): 0.9878
metabolic activity: OD 492 nm divided by OD of control (control = 1) ([2]; 48 hrs): 0.9805
metabolic activity: OD 492 nm divided by OD of control (control = 1) ([3]; 24 hrs): 2.9770
metabolic activity: OD 492 nm divided by OD of control (control = 1) ([3]; 48 hrs): 3.0358
metabolic activity: OD 492 nm divided by OD of control (control = 1) ([4]; 24 hrs): 1.4397
metabolic activity: OD 492 nm divided by OD of control (control = 1) ([4]; 48 hrs): 1.7022
metabolic activity: OD 492 nm divided by OD of control (control = 1) ([5]; 24 hrs): 0.9778
metabolic activity: OD 492 nm divided by OD of control (control = 1) ([5]; 48 hrs): 1.0151
metabolic activity: OD 492 nm divided by OD of control (control = 1) ([6]; 24 hrs): 1.0897
metabolic activity: OD 492 nm divided by OD of control (control = 1) ([6]; 48 hrs): 1.0886
metabolic activity: OD 492 nm divided by OD of control (control = 1) ([7]; 24 hrs): 3.4298
metabolic activity: OD 492 nm divided by OD of control (control = 1) ([7]; 48 hrs): 3.0447
metabolic activity: OD 492 nm divided by OD of control (control = 1) ([8]; 24 hrs): 0.9666
metabolic activity: OD 492 nm divided by OD of control (control = 1) ([8]; 48 hrs): 0.9443
metabolic activity: OD 492 nm divided by OD of control (control = 1) ([9]; 24 hrs): 1.0589
metabolic activity: OD 492 nm divided by OD of control (control = 1) ([9]; 48 hrs): 0.9795
metabolic activity: OD 492 nm divided by OD of control (control = 1) ([10]; 24 hrs): 1.0429
metabolic activity: OD 492 nm divided by OD of control (control = 1) ([10]; 48 hrs): 1.0176
metabolic activity: OD 492 nm divided by OD of control (control = 1) ([11]; 24 hrs): 1.1116
metabolic activity: OD 492 nm divided by OD of control (control = 1) ([11]; 48 hrs): 1.0780
metabolic activity: OD 492 nm divided by OD of control (control = 1) ([12]; 24 hrs): 1.7369
metabolic activity: OD 492 nm divided by OD of control (control = 1) ([12]; 48 hrs): 2.1360
metabolic activity: OD 492 nm divided by OD of control (control = 1) ([13]; 24 hrs): 1.1993
metabolic activity: OD 492 nm divided by OD of control (control = 1) ([13]; 48 hrs): 1.1453
metabolic activity: OD 492 nm divided by OD of control (control = 1) ([14]; 24 hrs): 0.9189
metabolic activity: OD 492 nm divided by OD of control (control = 1) ([14]; 48 hrs): 0.9284
metabolic activity: OD 492 nm divided by OD of control (control = 1) ([15]; 24 hrs): 0.7968
metabolic activity: OD 492 nm divided by OD of control (control = 1) ([15]; 48 hrs): 0.8296
